Data reported in patent US20240398768A1, “METHODS OF TREATING SOLID TUMOR USING HETEROAROMATIC MACROCYCLIC ETHER COMPOUNDS” (Nuvalent, Inc., priority 2021, published 2024).
Marks after values point to notes of the source that are not given here.

What was measured:
[1] = Human free fraction in plasma; type: in vitro ADME; details: of the total plasma concentration
CYP2C19 = CYP2C19 (Homo sapiens, UniProt P33261); assay: CYP substrate assessment; type: in vitro ADME
[2] = test system: Lu01-0414 PDX (SDC4-ROS1); assay: PDX efficacy model LU-01-0414; type: in vivo, mice; details: ROS1 PDX models of FIG. 2A-2C
CYP2B6 [3] = target: T1, CYP2B6 (Homo sapiens, UniProt P20813); assay: CYP inhibition; type: in vitro ADME
T1 sequence (P20813 1-491): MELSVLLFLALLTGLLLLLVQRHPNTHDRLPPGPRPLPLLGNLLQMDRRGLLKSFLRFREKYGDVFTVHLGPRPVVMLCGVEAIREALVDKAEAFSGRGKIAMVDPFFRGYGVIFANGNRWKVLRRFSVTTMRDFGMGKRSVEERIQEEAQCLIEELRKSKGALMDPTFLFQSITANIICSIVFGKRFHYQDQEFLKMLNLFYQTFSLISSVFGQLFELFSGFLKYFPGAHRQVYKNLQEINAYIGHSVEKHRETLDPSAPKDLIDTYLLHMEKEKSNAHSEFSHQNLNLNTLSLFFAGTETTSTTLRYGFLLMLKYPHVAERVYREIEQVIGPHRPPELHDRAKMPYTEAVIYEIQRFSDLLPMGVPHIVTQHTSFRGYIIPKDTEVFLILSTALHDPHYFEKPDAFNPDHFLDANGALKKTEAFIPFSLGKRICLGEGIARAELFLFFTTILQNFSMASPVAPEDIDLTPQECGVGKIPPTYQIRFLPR

CYP1A2 = target: T2, CYP1A2 (Homo sapiens, UniProt P05177); assay: CYP substrate assessment; type: in vitro ADME
T2 sequence (P05177 1-516): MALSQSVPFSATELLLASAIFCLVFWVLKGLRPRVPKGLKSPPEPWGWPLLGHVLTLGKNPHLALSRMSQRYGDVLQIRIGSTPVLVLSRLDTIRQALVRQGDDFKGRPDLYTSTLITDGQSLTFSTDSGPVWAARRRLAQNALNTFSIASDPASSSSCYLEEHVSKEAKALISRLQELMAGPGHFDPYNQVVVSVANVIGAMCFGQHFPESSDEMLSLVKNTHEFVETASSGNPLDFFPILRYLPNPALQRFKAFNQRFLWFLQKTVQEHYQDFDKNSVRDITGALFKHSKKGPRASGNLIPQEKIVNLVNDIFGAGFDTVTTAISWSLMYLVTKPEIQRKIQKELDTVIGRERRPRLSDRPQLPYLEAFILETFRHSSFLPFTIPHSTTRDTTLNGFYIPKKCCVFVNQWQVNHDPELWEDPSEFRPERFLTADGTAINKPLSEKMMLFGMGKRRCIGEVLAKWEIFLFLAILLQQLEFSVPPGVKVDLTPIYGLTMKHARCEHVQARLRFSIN

CYP2B6 [4] = target: T1, CYP2B6; assay: CYP substrate assessment; type: in vitro ADME
CYP2C8 [5] = target: T3, CYP2C8 (Homo sapiens, UniProt P10632); assay: CYP substrate assessment; type: in vitro ADME
T3 sequence (P10632 1-490): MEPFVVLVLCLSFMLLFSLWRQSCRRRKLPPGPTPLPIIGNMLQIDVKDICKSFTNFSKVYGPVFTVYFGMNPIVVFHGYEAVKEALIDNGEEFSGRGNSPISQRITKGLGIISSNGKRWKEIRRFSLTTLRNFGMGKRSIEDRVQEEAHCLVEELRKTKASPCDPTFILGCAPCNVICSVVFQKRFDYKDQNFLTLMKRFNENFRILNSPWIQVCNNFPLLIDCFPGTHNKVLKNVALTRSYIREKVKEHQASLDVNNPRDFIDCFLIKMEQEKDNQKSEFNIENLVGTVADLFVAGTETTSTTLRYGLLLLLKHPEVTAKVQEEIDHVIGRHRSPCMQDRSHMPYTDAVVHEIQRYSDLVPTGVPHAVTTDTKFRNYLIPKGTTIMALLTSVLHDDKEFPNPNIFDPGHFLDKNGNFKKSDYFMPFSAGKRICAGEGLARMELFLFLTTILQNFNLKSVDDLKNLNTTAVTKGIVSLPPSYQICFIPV

CYP2C8 [6] = target: T3, CYP2C8; assay: CYP inhibition; type: in vitro ADME
[7] = test system: advanced ROS1-positive NSCLC and other advanced ROS1-positive solid tumors; assay: Phase 1/2 clinical study: antitumor activity; type: in vivo, human; details: for tumor change by RECIST 1.1: patient
CYP3A4 = assay: CYP induction; type: in vitro ADME
[8] = Prior Lorlatinib and/or Repotrectinib n = 18
[9] = ROS1 G2032R Resistance Mutation n = 9
[10] = ≥2 Prior ROS1 TKI and ≥1 Chemotherapy n = 17

Sequence of CYP2C19 (P33261 whole entry): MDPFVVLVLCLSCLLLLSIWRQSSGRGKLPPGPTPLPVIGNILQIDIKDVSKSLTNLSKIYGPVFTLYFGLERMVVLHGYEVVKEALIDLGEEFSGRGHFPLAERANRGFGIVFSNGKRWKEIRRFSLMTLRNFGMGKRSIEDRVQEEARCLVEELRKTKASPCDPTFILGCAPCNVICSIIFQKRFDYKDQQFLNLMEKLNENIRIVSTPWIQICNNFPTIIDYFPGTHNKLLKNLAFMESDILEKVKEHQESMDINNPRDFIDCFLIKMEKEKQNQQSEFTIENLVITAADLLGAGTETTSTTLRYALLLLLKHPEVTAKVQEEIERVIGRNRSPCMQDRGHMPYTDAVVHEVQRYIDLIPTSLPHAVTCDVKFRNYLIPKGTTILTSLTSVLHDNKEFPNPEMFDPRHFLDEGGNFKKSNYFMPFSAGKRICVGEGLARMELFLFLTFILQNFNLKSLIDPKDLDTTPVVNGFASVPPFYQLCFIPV

CCn1ncc2c1-c1cnc(N)c(c1)O[C@H](C)c1cc(F)ccc1-c1nn(C)nc1C2 [Compound 1, (19R)-3-ethyl-16-fluoro-10,19-dimethyl-20-oxa-3,4,9,10,11,23-hexaazapentacyclo [19.3.1.0^2,^6.0^8,^12.0^13,^18]pentacosa-1 (24),2 (6),4,8,11,13,15,17,21 (25),22-decaen-22-amine]
fraction unbound [1]: 0.206 | substrate for CYP2C19 (CYP2C19): not considered a substrate | body weight [2]: No significant changes | IC50 (CYP2B6 [3]): > 100 µM | metabolism contribution from CYP1A2 (CYP1A2): potential for contributions | substrate for CYP2B6 (CYP2B6 [4]): not considered a substrate | metabolism contribution from CYP2C8 (CYP2C8 [5]): potential for contributions | IC50 (CYP2C8 [6]): 70 µM | Best Response NE, patients ([7]; All Response-Evaluable n = 21): 19^c | Best Response PD, patients ([7]; All Response-Evaluable n = 21): 2 | Best Response PR, patients ([7]; All Response-Evaluable n = 21): 10^a | Best Response SD, patients ([7]; All Response-Evaluable n = 21): 8 | ORR (RESIST 1.1) ([7]; All Response-Evaluable n = 21): 48% | ORR (RESIST 1.1), number of patients ([7]; All Response-Evaluable n = 21): 10 | Best Response NE, patients ([7]; CNS Disease at Baseline n = 11): 0 | Best Response PD, patients ([7]; CNS Disease at Baseline n = 11): 1 | Best Response PR, patients ([7]; CNS Disease at Baseline n = 11): 8a | Best Response SD, patients ([7]; CNS Disease at Baseline n = 11): 2 | ORR (RESIST 1.1) ([7]; CNS Disease at Baseline n = 11): 73% | ORR (RESIST 1.1), number of patients ([7]; CNS Disease at Baseline n = 11): 8 | tumor change (further disease regression) ([7]; EZR-ROS1 G2032R patient, 50 mg, at 16 weeks): −58% | Best Response NE, patients [7, 8]: 1c | Best Response PD, patients [7, 8]: 1 | Best Response PR, patients [7, 8]: 9a | Best Response SD, patients [7, 8]: 7 | ORR (RESIST 1.1) [7, 8]: 50% | ORR (RESIST 1.1), number of patients [7, 8]: 9 | Best Response NE, patients [7, 9]: 0 | Best Response PD, patients [7, 9]: 0 | Best Response PR, patients [7, 9]: 7^b | Best Response SD, patients [7, 9]: 2 | ORR (RESIST 1.1) [7, 9]: 78% | ORR (RESIST 1.1), number of patients [7, 9]: 7 | confirmed partial responses (PR) ([7]; among 12 efficacy-evaluable patients with ROS1+ NSCLC, 25-75 mg QD): 6 | median time to response ([7]; data as of Sep. 13, 2022): about 3.6 weeks | response-evaluable patients continuing treatment ([7]; data as of Sep. 13, 2022): 76% | tumor change, ongoing PR pending confirmation ([7]; one patient with ROS1 D2033N): −40% | patients with tumor shrinkage ([7]; patient subgroup with known ROS1 G2032R resistance mutation): 100% | ORR ([7]; patient subgroup with known ROS1 G2032R resistance mutation, data as of Sep. 13, 2022): 78% | tumor change by RECIST 1.1 ([7]; CD74-ROS1 G2032R, 25 mg daily, after 4 weeks): −31% | tumor change by RECIST 1.1 ([7]; CD74-ROS1 G2032R, escalated to 75 mg daily, over 5 months, confirmed PR): −60% | tumor change by RECIST 1.1 ([7]; EZR-ROS1, 25 mg daily, over 7 months): −48% | tumor change by RECIST 1.1 ([7]; EZR-ROS1, no ROS1 resistance mutations, 25 mg daily, week 4): −33% | tumor change by RECIST 1.1 ([7]; EZR-ROS1 G2032R, 50 mg daily, approximately 5 months, confirmed PR): −58% | tumor change by RECIST 1.1 ([7]; EZR-ROS1 G2032R, 50 mg daily, week 4): −38% | intracranial PR (patients) ([7]; patients with measurable (>10 mm) CNS metastases): 3/3 | median duration of treatment ([7]; response-evaluable patients with NSCLC, data as of Sep. 13, 2022): about 3.6 months | ORR ([7]; response-evaluable patients with any CNS disease, data as of Sep. 13, 2022): 73% | Best Response NE, patients [7, 10]: 1c | Best Response PD, patients [7, 10]: 1 | Best Response PR, patients [7, 10]: 9a | Best Response SD, patients [7, 10]: 6 | ORR (RESIST 1.1) [7, 10]: 53% | ORR (RESIST 1.1), number of patients [7, 10]: 9 | inducer of CYP3A4 (CYP3A4): potential inducer
